In patent US8076325B2, “1,2,4,5-tetrahydro-3H-benzazepine compounds, a process for their preparation and pharmaceutical compositions containing them” (Les Laboratoires Servier, priority 2007, dated 2011):
Counter-ions that a name gives are not always drawn.

system: spontaneously beating right atrium; assay: Effect of compounds on the spontaneous beating rate of the right atrium in the rat; conditions: Rattus norvegicus, 0.25 h
Procedure: Male WISTAR rats weighing from 325 to 375 g are anaesthetised by ip injection of pentobarbital sodium (30 mg/kg). The heart is rapidly excised and placed in a physiological solution at 4° C. which contains (in mM): NaCl 120.3, KCl 4.8, CaCl2 2.5, KH2PO4 1.0, MgSO4 1.3, NaHCO3 24.2, glucose 11.1, Ca-EDTA 0.016, and which is oxygenated (carbogene 95% O2+5% CO2), pH 7.4. The right atrium (RA), which beats spontaneously, is isolated, placed in a basin, thermostatically controlled at 35° C., containing 20 ml of physiological solution and connected to an isometric tension sensor (model IT-25, EMKA Technologies, Paris, France). The initial tension is set at 0.4 g. The spontaneous beating rate is measured by IOX software (EMKA Technologies, Paris, France). Preparations whose spontaneous beating rate is not between 200 and 300 beats per minute are excluded.
The compounds are dissolved daily at 10^−2M. The following dilutions are stored in ice over the duration of the experiment.
After stabilisation for 30 minutes, the compound under test is added to the medium in cumulative manner every 15 minutes (4 concentrations). The reductions in beating rate are expressed as a percentage relative to the initial rate. The concentration that reduces the initial beating rate by 30% (IC30) is calculated and expressed in terms of molarity (μM).

Row | Compound | IC30 [µM]
1 | CNC(=O)Oc1ccc2c(c1)CC2CN(C)CCC(=O)N1CCc2cc(OC)c(OC)cc2CC1 (stereo not shown) [Example 44, 7-{[[3-(7,8-Dimethoxy-1,2,4,5-tetrahydro-3H-3-benzazepin-3-yl)-3-oxopropyl](methyl)amino]methyl}bicyclo[4.2.0]octa-1,3,5-trien-3-yl methylcarbamate hydrochloride] | 0.8
2 | CNC(=O)Oc1ccc2c(c1)C(CN(C)CCC(=O)N1CCc3cc(OC)c(OC)cc3CC1)C2 (stereo not shown) [Example 46, 8-{[[3-(7,8-Dimethoxy-1,2,4,5-tetrahydro-3H-3-benzazepin-3-yl)-3-oxopropyl](methyl)amino]methyl}bicyclo[4.2.0]octa-1,3,5-trien-3-yl methylcarbamate hydrochloride] | 0.5
3 | COc1cc2c(cc1OC)CCN(C(=O)CCN(C)CC1Cc3cc(OC(=O)N(C)C)ccc31)CC2 (stereo not shown) [Example 47, 7-{[[3-(7,8-Dimethoxy-1,2,4,5-tetrahydro-3H-3-benzazepin-3-yl)-3-oxopropyl](methyl)amino]methyl}bicyclo[4.2.0]octa-1,3,5-trien-3-yl dimethylcarbamate hydrochloride] | 0.6
4 | COc1cc2c(cc1OC)CCN(C(=O)CCN(C)CC1Cc3ccc(OC(=O)N(C)C)cc31)CC2 (stereo not shown) [Example 50, 8-{[[3-(7,8-Dimethoxy-1,2,4,5-tetrahydro-3H-3-benzazepin-3-yl)-3-oxopropyl](methyl)amino]methyl}bicyclo[4.2.0]octa-1,3,5-trien-3-yl dimethylcarbamate hydrochloride] | 0.5
5 | COc1cc2c(cc1OC)CCN(C(=O)CCNCC1Cc3ccc(OC(=O)N(C)C)cc31)CC2 (stereo not shown) [Example 53, 8-{[[3-(7,8-Dimethoxy-1,2,4,5-tetrahydro-3H-3-benzazepin-3-yl)-3-oxopropyl]amino]methyl}bicyclo[4.2.0]octa-1,3,5-trien-3-yl dimethylcarbamate hydrochloride] | 1.8
6 | COc1cc2c(cc1OC)CCN(C(=O)CCNCC1Cc3cc(OC(=O)N(C)C)ccc31)CC2 (stereo not shown) [Example 54, 7-{[[3-(7,8-Dimethoxy-1,2,4,5-tetrahydro-3H-3-benzazepin-3-yl)-3-oxopropyl]amino]methyl}bicyclo[4.2.0]octa-1,3,5-trien-3-yl dimethylcarbamate hydrochloride] | 0.8
7 | CCN(CC)C(=O)Oc1ccc2c(c1)CC2CN(C)CCC(=O)N1CCc2cc(OC)c(OC)cc2CC1 (stereo not shown) [Example 71, 7-{[[3-(7,8-Dimethoxy-1,2,4,5-tetrahydro-3H-3-benzazepin-3-yl)-3-oxopropyl](methyl)amino]methyl}bicyclo[4.2.0]octa-1,3,5-trien-3-yl diethylcarbamate hydrochloride] | 1.8
8 | COc1cc2c(cc1OC)CCN(C(=O)CCN(C)CC1Cc3cc(OC(=O)N4CCCC4)ccc31)CC2 (stereo not shown) [Example 73, 7-{[[3-(7,8-Dimethoxy-1,2,4,5-tetrahydro-3H-3-benzazepin-3-yl)-3-oxopropyl](methyl)amino]methyl}bicyclo[4.2.0]octa-1,3,5-trien-3-yl 1-pyrrolidinecarboxylate hydrochloride] | 2.4

same assay, conditions: Rattus norvegicus, 0.25 h; concentration that reduces the initial spontaneous beating rate by 30%; isolated right atrium of male WISTAR rats, 35° C., compound added cumulatively every 15 minutes (4 concentrations); read-out: IC30

Row | Compound | IC30 [µM]
9 | COc1cc2c(cc1OC)CCN(C(=O)CCN(C)C[C@H]1Cc3cc(OC)c(OC)cc31)CC2 [Example 3a, N-{[(7S)-3,4-Dimethoxybicyclo[4.2.0]octa-1,3,5-trien-7-yl]methyl}-3-(7,8-dimethoxy-1,2,4,5-tetrahydro-3H-3-benzazepin-3-yl)-N-methyl-3-oxopropan-1-amine hydrochloride] | 1.3
10 | COc1cc2c(cc1OC)CCN(C(=O)CCNC[C@H]1Cc3cc(OC)c(OC)cc31)CC2 [Example 4, N-{[(7S)-3,4-Dimethoxybicyclo[4.2.0]octa-1,3,5-trien-7-yl]methyl}-3-(7,8-dimethoxy-1,2,4,5-tetrahydro-3H-3-benzazepin-3-yl)-3-oxopropan-1-amine hydrochloride] | 1.4
11 | COc1cc2c(cc1OC)CCN(C(=O)CCN(C)CC1Cc3cc(OC)c(OC)cc3C1)CC2 [Example 7, N-[(5,6-Dimethoxy-2,3-dihydro-1H-inden-2-yl)methyl]-3-(7,8-dimethoxy-1,2,4,5-tetrahydro-3H-3-benzazepin-3-yl)-N-methyl-3-oxopropan-1-amine hydrochloride] | 1.7
12 | CCOc1ccc2c(c1)CC2CNCCC(=O)N1CCc2cc(OC)c(OC)cc2CC1 (stereo not shown) [Example 14, 3-(7,8-Dimethoxy-1,2,4,5-tetrahydro-3H-3-benzazepin-3-yl)-N-[(3-ethoxybicyclo[4.2.0]octa-1,3,5-trien-7-yl)methyl]-3-oxopropan-1-amine hydrochloride] | 1
13 | COc1cc2c(cc1OC)CCN(C(=O)CCN(CC1CC1)C[C@H]1Cc3cc(OC)c(OC)cc31)CC2 [Example 22, N-(Cyclopropylmethyl)-N-{[(7S)-3,4-dimethoxybicyclo[4.2.0]octa-1,3,5-trien-7-yl]methyl}-3-(7,8-dimethoxy-1,2,4,5-tetrahydro-3H-3-benzazepin-3-yl)-3-oxopropan-1-amine hydrochloride] | 0.8
14 | C=CCN(CCC(=O)N1CCc2cc(OC)c(OC)cc2CC1)C[C@H]1Cc2cc(OC)c(OC)cc21 [Example 23, N-Allyl-N-{[(7S)-3,4-dimethoxybicyclo[4.2.0]octa-1,3,5-trien-7-yl]methyl}-3-(7,8-dimethoxy-1,2,4,5-tetrahydro-3H-3-benzazepin-3-yl)-3-oxopropan-1-amine hydrochloride] | 1.4
15 | COc1cc2c(cc1OC)CCN(C(=O)CCN(C[C@H]1Cc3cc(OC)c(OC)cc31)C1CCCC1)CC2 [Example 27, N-Cyclopentyl-N-{[(7S)-3,4-dimethoxybicyclo[4.2.0]octa-1,3,5-trien-7-yl]methyl}-3-(7,8-dimethoxy-1,2,4,5-tetrahydro-3H-3-benzazepin-3-yl)-3-oxopropan-1-amine fumarate] | 1.2
16 | COc1cc2c(cc1OC)CCN(C(=O)CCN(CC1CCCC1)C[C@H]1Cc3cc(OC)c(OC)cc31)CC2 [Example 28, N-(Cyclopentylmethyl)-N-{[(7S)-3,4-dimethoxybicyclo[4.2.0]octa-1,3,5-trien-7-yl]methyl}-3-(7,8-dimethoxy-1,2,4,5-tetrahydro-3H-3-benzazepin-3-yl)-3-oxopropan-1-amine hydrochloride] | 1.2
17 | COc1cc2c(cc1OC)CCN(C(=O)CCN(CC1CCC1)C[C@H]1Cc3cc(OC)c(OC)cc31)CC2 [Example 29, N-(Cyclobutylmethyl)-N-{[(7S)-3,4-dimethoxybicyclo[4.2.0]octa-1,3,5-trien-7-yl]methyl}-3-(7,8-dimethoxy-1,2,4,5-tetrahydro-3H-3-benzazepin-3-yl)-3-oxopropan-1-amine fumarate] | 0.4
18 | COc1ccc2c(c1)CCN(C(=O)CCN(C)C[C@H]1Cc3cc(OC)c(OC)cc31)CC2 [Example 34, N-{[(7S)-3,4-Dimethoxybicyclo[4.2.0]octa-1,3,5-trien-7-yl]methyl}-3-(7-methoxy-1,2,4,5-tetrahydro-3H-3-benzazepin-3-yl)-N-methyl-3-oxopropan-1-amine hydrochloride] | 1.3
19 | COc1cc2c(cc1C)C(CN(C)CCC(=O)N1CCc3cc(OC)c(OC)cc3CC1)C2 (stereo not shown) [Example 74, 3-(7,8-Dimethoxy-1,2,4,5-tetrahydro-3H-3-benzazepin-3-yl)-N-{[3-methoxy-4-methyl-bicyclo[4.2.0]octa-1,3,5-trien-7-yl]methyl}-N-methyl-3-oxopropan-1-amine hydrochloride] | 1
20 | COc1cc2c(cc1C)CC2CN(C)CCC(=O)N1CCc2cc(OC)c(OC)cc2CC1 (stereo not shown) [Example 76, 3-(7,8-Dimethoxy-1,2,4,5-tetrahydro-3H-3-benzazepin-3-yl)-N-{[4-methoxy-3-methyl-bicyclo[4.2.0]octa-1,3,5-trien-7-yl]methyl}-N-methyl-3-oxopropan-1-amine hydrochloride] | 1.6

same assay, conditions: concentration that reduces the initial spontaneous beating rate by 30%; isolated right atrium of male WISTAR rats, 35° C., compound added cumulatively every 15 minutes (4 concentrations); read-out: IC30

Row | Compound | IC30 [µM]
21 | 7-({[3-(7,8-Dimethoxy-1,2,4,5-tetrahydro-3H-3-benzazepin-3-yl)-3-oxopropyl](methyl)amino}methyl)bicyclo[4.2.0]octa-1,3,5-trien-3-yl hexahydrocyclopenta[c]pyrrole-2(1H)-carboxylate (cis compound) [Example 78] | 2.0
22 | COc1cc2c(cc1OC)CCN(C(=O)CCN(C)CC1Cc3cc(OC(=O)N(C)C)ccc31)CC2.Cl (single isomer, unassigned; (-)) [Example 48, (−) enantiomer of 7-{[[3-(7,8-dimethoxy-1,2,4,5-tetrahydro-3H-3-benzazepin-3-yl)-3-oxopropyl](methyl)amino]methyl}bicyclo[4.2.0]octa-1,3,5-trien-3-yl dimethylcarbamate hydrochloride] | 0.5
